# From paper PMC7450938, “Prenatal to early postnatal neurotrophic treatment prevents Alzheimer-like behavior and pathology in mice” (Alzheimer's Research & Therapy, 2020)
# Key:
# tau = assay: Western blots of total and hyperphosphorylated tau in hippocampus; type: in vivo, mouse
# Procedure: (§1) We treated 2- to 3-month-old pregnant 3xTg-AD and WT mothers with compound P021 in mouse chow, or with vehicle feed as control at E8 until their offspring/pups reached PND21, at which point the offspring were separated and put on standard mouse chow (Fig. 1). Treatment was administered as 60 nmol peptide/g formulated diet (Research Diets; New Brunswick, NJ, USA). The vehicle-treated control animals received the same diet but without the peptide. On average, each mouse consumed ~ 2.7 g diet/day.
# The animals were anesthetized with an overdose of sodium pentobarbital (125 mg/kg) and transcardially perfused with 0.1 M phosphate-buffered saline (PBS). After perfusion, the brains were removed from the skull immediately. The left hemisphere was dissected into hippocampus, cerebral cortex, cerebellum, and brain stem; immediately frozen on dry ice; and then stored at − 80 °C for biochemical analysis.
# (§2) The tissue from the left cerebral hemisphere from each mouse stored at− 80 °C was homogenized in a Teflon-glass homogenizer to generate 10% (w/v) homogenate. The pre-chilled homogenization buffer contained 50 mM Tris–HCl (pH 7.4), 8.5% sucrose, 2 mM EDTA, 2 mM EGTA, 10 mM β-mercaptoethanol plus the following protease and phosphatase inhibitors: 0.5 mM AEBSF, 10 μg/mL aprotinin, 10 μg/mL leupeptin, 4 μg/mL pepstatin, 5 mM benzamidine, 20 mM β-glycerophosphate, 50 mM sodium fluoride, 1 mM sodium orthovanadate, and 100 nM okadaic acid. Each homogenate was boiled in 2× Laemmli sample buffer for 5 min, and protein concentration was measured by PierceTM 660-nm protein assay (Thermo Scientific; Rockford, IL, USA).
# (§3) The samples were subjected to 10% SDS-PAGE and electro-transferred onto Immobilon-P membranes (EMD Millipore; Billerica, MA, USA). The blots were then probed with primary antibodies (Table 1) and developed with the corresponding HRP-conjugated secondary antibody and enhanced chemiluminescence (Pierce Biotechnology, Rockford, IL, USA). Densitometric quantification of protein bands in Western blots was analyzed using Multi Gauge version 3.0 software (FUJIFILM North America; Valhalla, NY, USA).
# [1] = test system: NR1, NR2A, NR2B, GluR1, GluR2&3, p-CREB; assay: Western blots of glutamate receptors and CREB in hippocampus; type: in vivo, mouse
# Procedure: as §1, §2, §3
# Iba-1, GFAP = assay: Western blots of Iba-1 and GFAP in hippocampus; type: in vivo, mouse; conditions: for increase of GFAP: 3xTg-AD mice, P021 diet E8-PND21, n = 3-4/group; for expression of Iba-1: among groups
# Procedure: as §1, §2, §3
# 3xTg-AD mice = assay: Novel object recognition test; type: in vivo, mouse; conditions: 3xTg-AD offspring, 3-4 months; P021 diet 60 nmol/g E8-PND21; 20-min delay, 5-min test phase; 3xTg-Vh vs 3xTg-P021 P = 0.0007
# Procedure: Pregnant 3xTg-AD and wild-type (WT) mice were treated with compound P021 in mouse chow, or as control with vehicle feed from gestational day 8 (E8) till their offspring/pups reached PND21, at which point the offspring were separated from their mother and put on normal mouse chow (Fig. 1). There were four study groups of mice, as follows: offspring of WT treated with vehicle diet (WT-Vh, n = 10), offspring of WT treated with P021 diet (WT-P021, n = 17), offspring of 3xTg-AD treated with vehicle diet (3xTg-Vh, n = 12), and offspring of 3xTg-AD treated with P021 diet (3xTg-P021, n = 18). Elevated plus maze, novel object recognition test, and Morris water maze were carried out consecutively from postnatal day 90 with all of mice. About 50% (4 animals/group) of the female offspring (n = 7–8 animals/group) were sacrificed at 4 months of age and the remaining 50% (3–4 animals/group) at 22 months of age. […]
# The novel object recognition memory task has been used to evaluate hippocampus-dependent memory in rodents through an evaluation of the differences in the exploration time of novel and familiar objects. […] The object discrimination index (DI) during the test phase was calculated as DI = [(time spent exploring the new object − time spent exploring the old object)/(time spent exploring both old and new objects)] × 100%.
# [2] = commercial service (APREDICA, Watertown, MA); cited from earlier work
# [3] = test system: PSD95, synapsin, synaptophysin, MAP2; assay: Western blots of dendritic and synaptic markers in hippocampus; type: in vivo, mouse; conditions: 3xTg-AD mice
# Procedure: as §1, §2, §3
# [4] = 4-month-old 3xTg-AD mice, P021 diet E8-PND21, vs 3xTg-Vh, n = 4
# [5] = 22-month-old 3xTg-AD mice, P021 diet E8-PND21
# [6] = 22-month-old 3xTg-AD mice, P021 diet E8-PND21, vs 3xTg-Vh, n = 4
# [7] = 4 months, 3xTg-AD mice, P021 diet E8-PND21, n = 3-4/group
# [8] = 22 months, 3xTg-AD mice, P021 diet E8-PND21, n = 3-4/group
# [9] = 4 months, P021 diet E8-PND21, n = 3-4/group
substance,measurement,setting,value
"Ac-DGGL^AG-NH2 [P021, 4-mer CNTF small molecule peptide mimetic to which adamantylated glycine was added at the C-terminal]",human-specific tau (antibody 43D),tau; [4],decreased
same,tau hyperphosphorylation at Ser202/Thr205 (antibody AT8),tau; [4],decrease
same,total tau (antibody R134d),tau; [4],decreased
same,human tau (antibody 43D),tau; [5],did not change significantly
same,hyperphosphorylated tau (antibody pT212),tau; [5],did not change significantly
same,tau hyperphosphorylation at Ser202/Thr205 (antibody AT8),tau; [6],decreased
same,tau hyperphosphorylation at Ser-396/404 (antibody PHF-1),tau; [6],decreased
same,total tau (antibody R134d),tau; [6],only an insignificant decrease
same,level of GluR1,[1]; [7],increased
same,level of NR1,[1]; [7],increased
same,level of NR2A,[1]; [7],increased
same,level of phosphorylated CREB (p-CREB),[1]; [7],increased
same,level of GluR2&3,"[1]; 4 months, among groups",no significant changes
same,level of NR2B,"[1]; 4 months, among groups",no significant changes
same,level of NR1,[1]; [8],increased
same,level of NR2A,[1]; [8],increased
same,level of p-CREB,[1]; [8],increased
same,level of GluR1,"[1]; 22 months, among groups",no significant changes
same,level of GluR2 and 3,"[1]; 22 months, among groups",no significant changes
same,level of NR2B,"[1]; 22 months, among groups",no significant changes
same,increase of GFAP,"Iba-1, GFAP; 4 months",rescued
same,expression of Iba-1,"Iba-1, GFAP; 4 months",no significant changes
same,increase of GFAP,"Iba-1, GFAP; 22 months",rescued
same,expression of Iba-1,"Iba-1, GFAP; 22 months",no significant changes
same,discrimination index in the test phase,3xTg-AD mice,improved
same,crossing of the blood-brain barrier,[2],enough P021 crossed the BBB to exert its effect in the brain
same,MAP2 deficit,[3]; [9],only the PSD 95 deficit was rescued
same,PSD95 deficit,[3]; [9],rescued
same,synapsin deficit,[3]; [9],only the PSD 95 deficit was rescued
same,synaptophysin deficit,[3]; [9],only the PSD 95 deficit was rescued
same,"levels of PSD95, synapsin, synaptophysin, and MAP2","[3]; 22 months, P021 diet E8-PND21, not significant",a trend for an increase
